From ChEMBL document CHEMBL3885861, “Open TG-GATES”

Species: Rattus norvegicus
Assay: Open TG-GATES - Regimen: Daily Repeat
Format: toxicity, organism-based, Sprague-Dawley
Design: regimen Daily Repeat, gender Male, age 6 weeks
Conditions: in vivo, po, 40 mg/kg, route gavage, dose level Low; for APTT / Bas / Eos / Fbg / Hb / Ht / Lym / MCH / MCHC / MCV / Mono / Neu / PT / Plat / RBC / Ret / WBC: tissue Blood
[1] = 72 h, tissue Kidney, time 3 day
[2] = 72 h, tissue Plasma, time 3 day

Cc1cccc(C)c1OCC(C)N (stereo unspecified) [MEXILETINE]
TERMINAL_BW (72 h, time 3 day): 247.9 g
APTT (72 h, time 3 day): 21.7 s
Bas (72 h, time 3 day): 0%
Eos (72 h, time 3 day): 0.8%
Fbg (72 h, time 3 day): 327.2 mg/dL
Hb (72 h, time 3 day): 13 g/dL
Ht (72 h, time 3 day): 39.6%
Lym (72 h, time 3 day): 79.8%
MCH (72 h, time 3 day): 20.3 pg
MCHC (72 h, time 3 day): 32.7%
MCV (72 h, time 3 day): 62.1 fL
Mono (72 h, time 3 day): 3.2%
Neu (72 h, time 3 day): 15.6%
PT (72 h, time 3 day): 15.2 s
Plat (72 h, time 3 day): 118.3 x10_4/uL
RBC (72 h, time 3 day): 638.4 x10_4/ul
Ret (72 h, time 3 day): 6.1%
WBC (72 h, time 3 day): 92 x10_2/uL
KIDNEY_L [1]: 1.1 g
KIDNEY_R [1]: 1.1 g
KIDNEY_TOTAL [1]: 2.1 g
LIVER (72 h, tissue Liver, time 3 day): 12.1 g
A/G [2]: 1.3
ALP [2]: 1808.2 IU/L
ALT [2]: 47.4 IU/L
AST [2]: 72.6 IU/L
BUN [2]: 16.2 mg/dL
CRE [2]: 0.1 mg/dL
Ca [2]: 10.5 mg/dL
Cl [2]: 105.2 meq/L
DBIL [2]: 0 mg/dL
GLC [2]: 192.4 mg/dL
IP [2]: 7.7 mg/dL
K [2]: 4.4 meq/L
LDH [2]: 147.4 IU/L
Na [2]: 141 meq/L
PL [2]: 151 mg/dL
RALB [2]: 3.2 g/dL
TBIL [2]: 0.006 mg/dL
TC [2]: 77.6 mg/dL
TG [2]: 133.8 mg/dL
TP [2]: 5.6 g/dL
gamma-GTP [2]: 1.6 IU/L
TERMINAL_BW ([…], time 7 day): 275.8 g
TERMINAL_BW ([…], time 14 day): 338.1 g
TERMINAL_BW ([…], time 28 day): 397.8 g
APTT ([…], time 7 day): 22.5 s
Bas ([…], time 7 day): 0%
Eos ([…], time 7 day): 1%
Fbg ([…], time 7 day): 317.4 mg/dL
Hb ([…], time 7 day): 13 g/dL
Ht ([…], time 7 day): 39.9%
Lym ([…], time 7 day): 81%
MCH ([…], time 7 day): 20.4 pg
MCHC ([…], time 7 day): 32.5%
MCV ([…], time 7 day): 62.8 fL
Mono ([…], time 7 day): 2.4%
Neu ([…], time 7 day): 15%
PT ([…], time 7 day): 16 s
Plat ([…], time 7 day): 107.4 x10_4/uL
RBC ([…], time 7 day): 634.4 x10_4/ul
Ret ([…], time 7 day): 6.2%
WBC ([…], time 7 day): 105.8 x10_2/uL
APTT ([…], time 14 day): 20.9 s
Bas ([…], time 14 day): 0%
Eos ([…], time 14 day): 0.4%
Fbg ([…], time 14 day): 302.8 mg/dL
Hb ([…], time 14 day): 13.1 g/dL
Ht ([…], time 14 day): 40.8%
Lym ([…], time 14 day): 80.4%
MCH ([…], time 14 day): 20.6 pg
MCHC ([…], time 14 day): 32.1%
MCV ([…], time 14 day): 64.2 fL
Mono ([…], time 14 day): 2.2%
Neu ([…], time 14 day): 16%
PT ([…], time 14 day): 15.9 s
Plat ([…], time 14 day): 119 x10_4/uL
RBC ([…], time 14 day): 634.2 x10_4/ul
Ret ([…], time 14 day): 7.8%
WBC ([…], time 14 day): 92.2 x10_2/uL
APTT ([…], time 28 day): 22.8 s
Bas ([…], time 28 day): 0%
Eos ([…], time 28 day): 1%
Fbg ([…], time 28 day): 323.4 mg/dL
Hb ([…], time 28 day): 14.9 g/dL
Ht ([…], time 28 day): 43.2%
